Data from article PMC9823735, “Inhibition of Leishmania infantum Trypanothione Reductase by New Aminopropanone Derivatives Interacting with the NADPH Binding Site” (Molecules, 2023).

Tests used:
[1] = test system: L. infantum promastigotes; parameters: method as in PMID 30475811; settings: read-out: IC50 anti-proliferative effect; cited from earlier work
hGR = test system: hGR; parameters: method as in PMID 30475811; settings: cited from earlier work
LiTR [2] = target: T1, LiTR (Leishmania infantum, UniProt A4HSF7); parameters: method as in PMID 30475811; settings: residual LiTR activity with 100 μM inhibitor; reference compound; cited from earlier work
T1 construct: LiTR has been expressed and purified as reported previously; made in house
T1 sequence (A4HSF7 1-491): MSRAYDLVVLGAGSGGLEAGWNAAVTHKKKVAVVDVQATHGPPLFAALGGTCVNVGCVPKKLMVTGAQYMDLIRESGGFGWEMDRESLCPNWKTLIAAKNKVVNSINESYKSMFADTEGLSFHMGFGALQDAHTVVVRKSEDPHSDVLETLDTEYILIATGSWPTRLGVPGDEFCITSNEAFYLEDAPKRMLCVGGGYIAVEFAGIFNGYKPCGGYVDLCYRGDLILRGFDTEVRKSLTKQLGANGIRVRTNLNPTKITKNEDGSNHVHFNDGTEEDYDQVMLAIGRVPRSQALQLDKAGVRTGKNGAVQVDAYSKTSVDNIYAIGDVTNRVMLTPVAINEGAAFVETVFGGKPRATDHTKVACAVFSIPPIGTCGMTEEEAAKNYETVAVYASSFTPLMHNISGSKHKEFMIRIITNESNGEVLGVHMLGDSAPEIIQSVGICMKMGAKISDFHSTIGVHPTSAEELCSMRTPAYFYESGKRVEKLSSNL

[3] = target: T2, human homolog glutathione reductase (Homo sapiens, UniProt P00390); assay: Glutathione reductase inhibition assay (NADPH oxidation, absorbance at 340 nm); type: biochemical
T2 construct: purchased Sigma Aldrich
T2 sequence (P00390 44-522): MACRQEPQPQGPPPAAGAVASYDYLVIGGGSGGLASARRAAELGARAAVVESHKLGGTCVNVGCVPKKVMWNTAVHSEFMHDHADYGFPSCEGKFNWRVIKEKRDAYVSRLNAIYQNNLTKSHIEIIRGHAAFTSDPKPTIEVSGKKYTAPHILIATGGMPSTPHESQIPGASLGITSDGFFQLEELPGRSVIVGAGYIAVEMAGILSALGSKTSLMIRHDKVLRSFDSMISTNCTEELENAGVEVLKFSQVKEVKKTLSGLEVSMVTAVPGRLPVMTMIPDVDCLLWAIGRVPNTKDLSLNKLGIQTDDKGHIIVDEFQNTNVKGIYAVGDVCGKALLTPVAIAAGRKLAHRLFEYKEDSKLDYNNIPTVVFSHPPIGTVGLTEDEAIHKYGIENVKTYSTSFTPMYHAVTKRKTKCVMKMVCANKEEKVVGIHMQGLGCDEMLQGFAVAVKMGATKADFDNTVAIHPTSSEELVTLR
Description: (§1) Furthermore, the best acting compound, namely 2b, reduced the activity of the enzyme by 47%.
Figure S9: Conformation of compound 3c with the lowest energy in the most populated cluster.
Figure S10. Inhibition kinetics of the glutathione reductase in the presence of compound 2b. Inhibition assays were performed at 25 °C using a JASCO V650 spectrophotometer equipped with a JASCO EHC-716 Peltier unit. Glutathione Reductase (GR) 50 nM, (purchased from Sigma Aldrich) was mixed with varying concentrations of compound 2b (0.1 to 200 μM) and 150 μM oxidized glutathione in 50 mM HEPES pH 7.4, 40 mM NaCl; and incubated at 25°C for 3 minutes. The reaction was started upon addition of 100 μM NADPH. Oxidation of NADPH was followed as a decrease in absorbance at 340 nm. GR activity was determined as V0(compound)/V0(control)*100 where V0 is the initial velocity. The IC50 was determined using a dose response logistic equation defined by the Kaleidagraph software as ymin+(ymax-ymin)/(1+(x/IC50)^slope). […]

LiTR [4] = target: T1, LiTR; assay: LiTR enzymatic inhibition assay (NADPH oxidation, absorbance at 340 nm); type: biochemical; settings: for activity at 100 µM: read-out: LiTR Activity (% at 100 µM)
Description: as §1
Enzymatic inhibition assays were performed at 25 °C using a JASCO V650 spectrophotometer equipped with a JASCO EHC-716 Peltier unit. LiTR (50 nM) was mixed with 100 μM of the compounds and 150 μM trypanothione in 50 mM HEPES pH 7.4, 40 mM NaCl, and incubated at 25 °C for 3 min. The reaction was started upon addition of 100 μM NADPH. Oxidation of the NADPH was followed as a decrease in absorbance at 340 nm. The best inhibitor candidate (2b) was then tested under the same conditions at concentrations ranging from 0.1 to 200 μM to determine the IC50. LiTR activity was determined as V0(compound)/V0(control)*100, where V0 is the initial velocity. The IC50 was determined using a dose response logistic equation defined by the Kaleidagraph software as ymin + (ymax-ymin)/(1 + (x/IC50)^slope).

## CCN(CC)CCOC(=O)c1ccc(NCCC(=O)c2ccc([N+](=O)[O-])cc2)cc1 [Compound 1, 2-(diethylamino)ethyl 4-((3-(4-nitrophenyl)-3-oxopropyl)amino)benzoate]
[1]
  IC50: 12.4 µM
hGR
  IC50: > 85 µM
LiTR [2]
  LiTR Activity (% at 100 µM): <10.0 [10] %

## CCN(CC)CCOC(=O)c1ccc(NCCC(=O)c2ccc(-c3ccc(Cl)cc3)cc2)cc1 [Compound 2b, 2-(Diethylamino)ethyl 4-((3-(4’-chloro-[1,1’-biphenyl]-4-yl)-3-oxopropyl)amino)benzoate]
[3]; 25 °C, 50 nM GR, 150 μM oxidized glutathione, 100 μM NADPH
  IC50: > 150 µM
[3]; GR versus LiTR
  IC50 on glutathione reductase relative to IC50 on TR (selectivity): more than two-fold higher
LiTR [4]; 100 μM compound
  residual LiTR activity: 47%
LiTR [4]; 25 °C, 150 μM trypanothione, 100 μM NADPH, average of three experiments
  IC50: 65 µM
LiTR [4]
  activity at 100 µM: 47 ± 9.7%

## CCN(CC)CCNC(=O)c1ccc(NCCC(=O)c2ccc(-c3ccccc3)cc2)cc1 [Compound 3a, 4-((3-([1,1’-Biphenyl]-4-yl)-3-oxopropyl)amino)-N-(2-(diethylamino)ethyl)benzamide]
LiTR [4]
  activity at 100 µM: 68.4 ± 6.7%

## CCN(CC)CCNC(=O)c1ccc(NCCC(=O)c2ccc(-c3ccc(Cl)cc3)cc2)cc1 [Compound 3b, 4-((3-(4’-Chloro-[1,1’-biphenyl]-4-yl)-3-oxopropyl)amino)-N-(2-(diethylamino)ethyl)benzamide]
LiTR [4]
  activity at 100 µM: 59.4 ± 2.4%

## CCN(CC)CCOC(=O)c1ccc(NCCC(=O)c2ccc(-c3ccccc3)cc2)cc1 [Compound 2a, 2-(Diethylamino)ethyl 4-((3-([1,1’-biphenyl]-4-yl)-3-oxopropyl)amino)benzoate]
LiTR [4]
  activity at 100 µM: 55.4 ± 13.3%

## CCN(CC)CCOC(=O)c1ccc(NCCC(=O)c2ccc(Br)cc2)cc1 [Compound 2c, 2-(Diethylamino)ethyl 4-((3-(4-bromophenyl)-3-oxopropyl)amino)benzoate]
LiTR [4]
  activity at 100 µM: 73.8 ± 4.6%

## CCN(CC)CCOC(=O)c1ccc(NCCC(=O)c2ccc(F)cc2)cc1 [Compound 2e, 2-(Diethylamino)ethyl 4-((3-(4-fluorophenyl)-3-oxopropyl)amino)benzoate]
LiTR [4]
  activity at 100 µM: 60.5 ± 4.1%

## CCN(CC)CCNC(=O)c1ccc(NCCC(=O)c2ccc(Br)cc2)cc1 [Compound 3c, 4-((3-(4-Bromophenyl)-3-oxopropyl)amino)-N-(2-(diethylamino)ethyl)benzamide]
LiTR [4]
  activity at 100 µM: 87.3 ± 1.9%

## CCN(CC)CCOC(=O)c1ccc(NCCC(=O)c2ccccc2)cc1 [Compound 2d, 2-(Diethylamino)ethyl 4-((3-oxo-3-phenylpropyl)amino)benzoate]
LiTR [4]
  activity at 100 µM: 73.8 ± 4.4%

## CCN(CC)CCOC(=O)c1ccc(N(CCC(=O)c2ccc(F)cc2)CCC(=O)c2ccc(F)cc2)cc1 [Compound 2f, 2-(Diethylamino)ethyl 4-(bis(3-(4-fluorophenyl)-3-oxopropyl)amino)benzoate]
LiTR [4]
  activity at 100 µM: 75 ± 2.4%
